Measured values taken from paper PMC11644518 (Plants, 2024).
Where “and” joins values, the source holds several entries; their conditions need not be identical. Equal entries are not always repeated.

What was measured:
SARS-CoV PLpro [1] = biological target: T1, SARS-CoV PLpro (Severe acute respiratory syndrome coronavirus, UniProt P0C6X7); assay: biochemical; conditions: for Ki: Ki (inhibition constant)
SARS-CoV PLpro [2] = biological target: T1, SARS-CoV PLpro; assay: biochemical; conditions: for IC50: IC50 Value, SARS-CoV PLpro inhibitory activity

For `CC(C)=CCc1cc2c(cc1O)OC[C@H]1c3ccc(O)c(CC=C(C)C)c3O[C@@H]21` [Compound 1, erythrabyssin II], the “Inhibition Mode” value (SARS-CoV PLpro [1]) was “Noncompetitive (17.0 ± 3.1)”.
With `COc1c(CC=C(C)C)c(O)cc2c1[C@@H]1Oc3c(ccc(O)c3CC=C(C)C)[C@@H]1CO2` [Compound 3, 1-methoxyerythrabyssin II] the “Inhibition Mode” value (SARS-CoV PLpro [1]) was “Noncompetitive (8.6 ± 1.1)”, the Ki (SARS-CoV PLpro [1]) was 8.6 µM and the “fold higher inhibition than demethoxylated analog 1” value (SARS-CoV PLpro [2]) was 2 fold. It also gave an IC50 (SARS-CoV PLpro [2]) of 11.2 µM.
For `COc1c(CC=C(C)C)c(O)cc2c1[C@@H]1Oc3c(cc(C)c(O)c3CC=C(C)C)[C@@H]1CO2` [Compound 4, bicolosin A], the “Inhibition Mode” value (SARS-CoV PLpro [1]) was “Noncompetitive (45.2 ± 3.1)”, the Ki (SARS-CoV PLpro [1]) was 45.2 µM and the IC50 (SARS-CoV PLpro [2]) was 43.3 µM and 43.2 µM.
In the case of `COc1cc(O)c(C/C=C(\C)CCC=C(C)C)c2c1[C@@H]1Oc3cc(O)ccc3[C@@H]1CO2` [Compound 6, bicolosin C], the “Effect on Michaelis-Menten constant (Km)” value (SARS-CoV PLpro [1]) is reported as “no effect”, the “Effect on Vmax” value (SARS-CoV PLpro [1]) is reported as “reduced” and the “Inhibition Mode” value (SARS-CoV PLpro [1]) is reported as “Noncompetitive (9.0 ± 1.4)”. For the same molecule, the Reversibility of inhibition (SARS-CoV PLpro [1]) was “reversible inhibitor”, the Ki (SARS-CoV PLpro [1]) was 9.06 µM and 9 µM and the IC50 (SARS-CoV PLpro [2]) was 9.3 ± 3.1 µM.
`CC(C)=CCC[C@@]1(C)C=Cc2c(ccc(C(=O)/C=C/c3ccc(O)cc3)c2O)O1` (racemic) [Compound 8, (±)-lespeol] was tested, and the “Inhibition Mode” value (SARS-CoV PLpro [1]) was “Noncompetitive (54.0 ± 4.5)”, the Ki (SARS-CoV PLpro [1]) was 54 µM and the “fold lower potency than 7” value (SARS-CoV PLpro [2]) was 8 fold. The IC50 (SARS-CoV PLpro [2]) was 50.1 ± 4.2 µM.
With `CC(C)=CCc1cc2c(cc1O)OCC1c3cc(C)c(O)c(CC=C(C)C)c3OC21` (stereo not shown) [Compound 2, lespebuergine G4] the “Inhibition Mode” value (SARS-CoV PLpro [1]) was “Noncompetitive (33.2 ± 1.7)”, the Ki (SARS-CoV PLpro [1]) was 33.2 µM and the IC50 (SARS-CoV PLpro [2]) was 33 µM and 32.9 µM.
Molecule `CC(C)=CCC/C(C)=C/Cc1cc2c(cc1O)OC[C@H]1c3cc(C)c(O)c(CC=C(C)C)c3O[C@@H]21` [Compound 5, bicolosin B] has an IC50 (SARS-CoV PLpro [2]) of 217 ± 7.6 µM.
In the case of `CC(C)=CCC/C(C)=C/Cc1c(O)ccc(C(=O)/C=C/c2ccc(O)cc2)c1O` [Compound 7, xanthoangelol], the “Inhibition Mode” value (SARS-CoV PLpro [1]) is reported as “Noncompetitive (5.5 ± 0.8)”, the Ki (SARS-CoV PLpro [1]) is reported as 5.5 µM and the IC50 (SARS-CoV PLpro [2]) is reported as 6.3 ± 1.5 µM.
With `COc1c(O)ccc(C2COc3cc(O)cc(O)c3C2=O)c1OC` (stereo not shown) [Compound 9, parvisoflavanone] the “Inhibition Mode” value (SARS-CoV PLpro [1]) was “Noncompetitive (75.3 ± 5.7)”, the Ki (SARS-CoV PLpro [1]) was 75.3 µM and the IC50 (SARS-CoV PLpro [2]) was 104 ± 6.1 µM.
